Experimental data published in patent US7511144B2, “Reverse hydroxamic acid derivatives” (Kaken Pharmaceutical Co., Ltd., priority 2001, dated 2009).

Experiments:
Format in all cases: biochemical
TACE = biological target: T1, TACE (Homo sapiens, UniProt P78536); assay: TACE inhibition experiment (in vitro)
T1 construct: made in house; host or cells: mammalian cells or insect cells

Human MMP1 = biological target: T2, Human MMP1 (Homo sapiens, UniProt P03956); assay: MMP1 inhibition experiment; conditions: read-out: IC50 value MMP-1
T2 construct: purchased Calbiochem 444208
T2 sequence (P03956 100-469): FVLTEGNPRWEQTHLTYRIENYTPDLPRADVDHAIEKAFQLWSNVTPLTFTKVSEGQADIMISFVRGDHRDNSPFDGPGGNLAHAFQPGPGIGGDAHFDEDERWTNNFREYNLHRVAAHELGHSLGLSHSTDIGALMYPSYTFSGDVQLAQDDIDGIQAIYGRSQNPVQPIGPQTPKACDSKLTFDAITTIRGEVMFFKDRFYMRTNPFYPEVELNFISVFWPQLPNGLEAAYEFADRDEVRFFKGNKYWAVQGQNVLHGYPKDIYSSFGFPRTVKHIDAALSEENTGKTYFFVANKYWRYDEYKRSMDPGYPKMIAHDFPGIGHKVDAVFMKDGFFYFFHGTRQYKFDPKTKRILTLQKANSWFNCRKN
Experimental: (§1) The methods of inhibition experiments carried out for various MMPs are described below.
This enzyme solution in amount of 10 μL was diluted to 90 μL with the assay buffer A, which was added to 90 μL of 20 μM fluorescent substrate (Dnp-Pro-Cha(β-cyclohexylalanyl)-Gly-Cys(Me)-His-Ala-Lys(Nma)-NH2) prepared in the assay buffer B, followed by reaction for 5 hours at 37° C.

Human MMP2 = biological target: T3, Human MMP2 (Homo sapiens, UniProt P08253); assay: MMP2 inhibition experiment; conditions: concentration required for 50% inhibition of enzyme activity; read-out: IC50 value MMP-2
T3 construct: purchased Calbiochem 444213
T3 sequence (P08253 110-660): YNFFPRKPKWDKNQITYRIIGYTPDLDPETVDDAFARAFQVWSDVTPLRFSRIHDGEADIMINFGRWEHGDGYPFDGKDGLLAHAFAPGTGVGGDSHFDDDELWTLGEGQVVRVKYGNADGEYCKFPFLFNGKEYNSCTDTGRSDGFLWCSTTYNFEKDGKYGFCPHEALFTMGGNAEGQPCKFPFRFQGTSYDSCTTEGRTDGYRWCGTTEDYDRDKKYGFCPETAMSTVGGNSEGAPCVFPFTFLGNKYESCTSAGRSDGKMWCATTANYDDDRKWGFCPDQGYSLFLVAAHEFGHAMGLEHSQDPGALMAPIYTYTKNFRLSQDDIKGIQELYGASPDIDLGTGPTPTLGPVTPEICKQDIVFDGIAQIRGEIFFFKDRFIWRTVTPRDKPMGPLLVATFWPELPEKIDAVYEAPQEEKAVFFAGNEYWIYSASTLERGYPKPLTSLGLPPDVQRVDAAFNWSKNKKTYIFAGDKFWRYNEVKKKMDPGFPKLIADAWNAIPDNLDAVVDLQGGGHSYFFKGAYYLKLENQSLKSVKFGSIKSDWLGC
Experimental: This enzyme solution in amount of 10 μL was diluted to 90 μL with the assay buffer A, which was added to 90 μL of 20 μM fluorescent substrate (MOCAc((7-methoxycoumarin-4-yl)acetyl)-Pro-Leu-Gly-Leu-A2pr(Dnp)-Ala-Arg-NH2, Peptide Institute, Inc., #3163-v) prepared in the assay buffer B, followed by reaction for 5 hours at 37° C.

Human MMP3 = biological target: T4, Human MMP3 (Homo sapiens, UniProt P08254); assay: MMP3 inhibition experiment; conditions: concentration required for 50% inhibition of enzyme activity; read-out: IC50 value MMP-3
T4 construct: purchased Calbiochem 444217
T4 sequence (P08254 100-272 limits assumed): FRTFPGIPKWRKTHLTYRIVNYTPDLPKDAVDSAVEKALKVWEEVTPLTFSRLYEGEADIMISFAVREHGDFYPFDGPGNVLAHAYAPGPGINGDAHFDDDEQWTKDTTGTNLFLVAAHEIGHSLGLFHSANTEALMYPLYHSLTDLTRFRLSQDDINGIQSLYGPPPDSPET
Summary of the method: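 Fluorescence-quenched substrate NFF-3 (MOCAc/Dnp peptide, 20 μM as prepared) cleaved by 5 ng human MMP3 over 5 hours at 37° C, with inhibition measured from substrate fluorescence.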

Human MMP8 = biological target: T5, Human MMP8 (Homo sapiens, UniProt P22894); assay: MMP8 inhibition experiment; conditions: concentration required for 50% inhibition of enzyme activity; read-out: IC50 value MMP-8
T5 construct: purchased Calbiochem 444229
T5 sequence (P22894 101-467): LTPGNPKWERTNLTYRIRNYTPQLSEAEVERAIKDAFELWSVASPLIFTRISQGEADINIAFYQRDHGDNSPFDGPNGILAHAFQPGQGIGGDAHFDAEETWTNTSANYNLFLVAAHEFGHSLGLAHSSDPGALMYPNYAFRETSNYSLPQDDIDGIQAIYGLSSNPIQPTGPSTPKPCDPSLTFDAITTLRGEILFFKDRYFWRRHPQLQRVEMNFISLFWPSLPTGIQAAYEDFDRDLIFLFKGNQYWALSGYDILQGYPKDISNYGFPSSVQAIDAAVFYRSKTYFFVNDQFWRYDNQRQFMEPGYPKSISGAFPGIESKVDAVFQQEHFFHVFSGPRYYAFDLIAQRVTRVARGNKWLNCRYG
Summary of the method: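 Human MMP8 activated with APMA for 1 h at 37° C, then incubated with fluorogenic peptide MOCAc-Pro-Leu-Gly-Leu-A2pr(Dnp)-Ala-Arg-NH2 (20 μM stock) for 5 hours at 37° C. Fluorescent substrate cleavage serves as read-out.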

Human MMP9 = biological target: T6, Human MMP9 (Homo sapiens, UniProt P14780); assay: MMP9 inhibition experiment; conditions: read-out: IC50 value MMP-9
T6 construct: purchased Calbiochem 444231
T6 sequence (P14780 107-707 limits assumed): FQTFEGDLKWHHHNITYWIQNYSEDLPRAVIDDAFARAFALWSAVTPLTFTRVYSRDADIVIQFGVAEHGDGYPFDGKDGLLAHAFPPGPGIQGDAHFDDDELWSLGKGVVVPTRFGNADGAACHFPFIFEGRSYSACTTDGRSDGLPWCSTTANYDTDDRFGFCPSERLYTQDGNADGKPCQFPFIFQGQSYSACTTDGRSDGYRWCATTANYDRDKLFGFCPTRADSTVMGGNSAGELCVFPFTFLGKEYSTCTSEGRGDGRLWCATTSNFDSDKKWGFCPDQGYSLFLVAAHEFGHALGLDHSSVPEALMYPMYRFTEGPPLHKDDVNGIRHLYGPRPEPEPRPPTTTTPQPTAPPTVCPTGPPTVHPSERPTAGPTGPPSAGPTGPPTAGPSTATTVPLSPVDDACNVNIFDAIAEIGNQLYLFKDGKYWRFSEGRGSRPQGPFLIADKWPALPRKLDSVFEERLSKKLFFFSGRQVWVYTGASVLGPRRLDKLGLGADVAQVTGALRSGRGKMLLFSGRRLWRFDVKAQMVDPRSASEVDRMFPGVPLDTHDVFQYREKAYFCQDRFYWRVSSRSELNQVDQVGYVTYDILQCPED
Experimental: as §1
This enzyme solution in amount of 1 μL was diluted to 90 μL with the assay buffer A, which was added to 90 μL of 20 μM fluorescent substrate (Dnp-Pro-Cha-Gly-Cys(Me)-His-Ala-Lys(Nma)-NH2) prepared in the assay buffer B, followed by reaction for 4 hours at 37° C.

Human MMP13 = biological target: T7, Human MMP13 (Homo sapiens, UniProt P45452); assay: MMP13 inhibition experiment; conditions: concentration required for 50% inhibition of enzyme activity; read-out: IC50 value MMP-13
T7 construct: purchased Chemicon CC068
Experimental: Human MMP13 (Chemicon #CC068) in amount of 90 μL (200 ng) was activated by mixing with 10 μL of 10 mM APMA, followed by reaction for 1 hour at 37° C. This enzyme solution in amount of 0.6 μL was diluted to 90 μL with the assay buffer A, which was added to 90 μL of 20 μM fluorescent substrate (Dnp-Pro-Cha-Gly-Cys(Me)-His-Ala-Lys(Nma)-NH2) prepared in the assay buffer B, followed by reaction for 4 hours at 37° C.

Human MMP14 = biological target: T8, Human MMP14 (Homo sapiens, UniProt P50281); assay: MMP14 inhibition experiment; conditions: concentration required for 50% inhibition of enzyme activity; read-out: IC50 value MMP-14
T8 construct: purchased Biogenesis or Calbiochem 5980-1461 or 475935
Summary of the method: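 Fluorescence assay: substrate Dnp-Pro-Cha-Gly-Cys(Me)-His-Ala-Lys(Nma)-NH2 (20 μM before equal-volume mixing) incubated at 37° C for 5 hours with 4 ng human MMP14.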

Human MMP17 = biological target: T9, Human MMP17 (Homo sapiens, UniProt Q9ULZ9); assay: MMP17 inhibition test; conditions: concentration required for 50% inhibition of enzyme activity; read-out: IC50 value MMP-17
T9 construct: purchased Calbiochem 475940
T9 sequence (Q9ULZ9 126-300 limits assumed): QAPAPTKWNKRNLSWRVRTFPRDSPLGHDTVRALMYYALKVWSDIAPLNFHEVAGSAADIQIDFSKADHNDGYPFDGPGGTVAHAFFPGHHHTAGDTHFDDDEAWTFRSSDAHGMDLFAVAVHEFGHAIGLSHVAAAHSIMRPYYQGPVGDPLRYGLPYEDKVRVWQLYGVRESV

T1 sequence (P78536 215-824): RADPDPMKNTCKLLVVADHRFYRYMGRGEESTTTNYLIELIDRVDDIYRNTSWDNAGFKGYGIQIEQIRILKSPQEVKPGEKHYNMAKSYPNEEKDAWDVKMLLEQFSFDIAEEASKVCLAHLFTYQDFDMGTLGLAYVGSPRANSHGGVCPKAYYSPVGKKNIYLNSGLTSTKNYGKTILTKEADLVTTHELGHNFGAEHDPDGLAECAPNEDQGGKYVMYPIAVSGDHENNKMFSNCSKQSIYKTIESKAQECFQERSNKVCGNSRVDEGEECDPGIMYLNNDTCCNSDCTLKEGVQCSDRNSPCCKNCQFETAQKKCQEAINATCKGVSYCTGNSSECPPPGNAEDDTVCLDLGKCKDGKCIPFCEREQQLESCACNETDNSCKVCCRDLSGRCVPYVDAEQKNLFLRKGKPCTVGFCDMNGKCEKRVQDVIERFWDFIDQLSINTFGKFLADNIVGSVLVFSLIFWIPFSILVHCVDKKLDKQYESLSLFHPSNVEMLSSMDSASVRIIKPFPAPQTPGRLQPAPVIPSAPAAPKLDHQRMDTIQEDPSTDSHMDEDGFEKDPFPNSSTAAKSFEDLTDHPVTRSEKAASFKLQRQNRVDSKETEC

| Compound | IC50 (TACE) [nM] | IC50 (Human MMP1) [µM] | IC50 (Human MMP2) [µM] | IC50 (Human MMP3) [nM] | IC50 (Human MMP8) [µM] | IC50 (Human MMP9) [µM] | IC50 (Human MMP13) [µM] | IC50 (Human MMP14) [µM] | IC50 (Human MMP17) [µM] |
| --- | --- | --- | --- | --- | --- | --- | --- | --- | --- |
| CCC(CC)C(=O)N1CCC(=CC(CS(=O)(=O)c2ccc(OCc3cc(C)nc4ccccc34)cc2)N(O)C=O)CC1 (stereo not drawn) [Example I-42] | 2.9 | 70 | 18 | 2200 | 61 | 52 | 20 | 38 | 2.3 |
| Cc1cc(COc2ccc(S(=O)(=O)CC(c3ccccc3C)N(O)C=O)cc2)c2cc(F)ccc2n1 (stereo not drawn) [Example I-79, N-{2-[4-(6-fluoro-2-methylquinolin-4-ylmethoxy)benzenesulfonyl]-1-o-tolylethyl}-N-hydroxyformamide] | 15 | 68 | 58 | 2900 | 73 | 70 | 20 | 46 | 6.2 |
| COCc1cc(COc2ccc(S(=O)(=O)CC(C=C3CCC(=NO)CC3)N(O)C=O)cc2)cc(C)n1 (stereo not drawn) [Example I-120] | 110 | > 100 | 22 | 68000 | 27 | > 100 | 62 | > 100 | 33 |
| Cc1ccc(C(C)(CS(=O)(=O)c2ccc(OCc3cc(C)nc4ccccc34)cc2)N(O)C=O)cc1 (stereo not drawn) [Example I-57] | 12 | 42 | > 100 | 6000 | > 100 | 60 | 33 | 33 | 4.6 |
| Cc1cc(COc2ccc(S(=O)(=O)CC(C=C3CCN(Cc4ccccc4)CC3)N(O)C=O)cc2)c2ccccc2n1 (stereo not drawn) [Example I-45] | 5 | 85 | 1 | 260 | 5 | 40 | 2 | 9 | 0.27 |
| COCC(=O)N1CCN(CC(CS(=O)(=O)c2ccc(OCc3cc(C)nc4ccccc34)cc2)N(O)C=O)CC1 (stereo not drawn) [Example I-53] | 10 | > 100 | 13 | 600 | 25 | > 100 | 40 | > 100 | 0.4 |
| Cc1cncc(C(CS(=O)(=O)c2ccc(OCc3cc(C)nc4ccc(C)cc34)cc2)N(O)C=O)c1 (stereo not drawn) [Example I-78] | 3.1 | > 100 | 36 | 2800 | 52 | > 100 | 16 | 55 | 3.9 |
| CCC(CC)C(=O)N1CCC(CC(CS(=O)(=O)c2ccc(OCc3cc(C)nc4ccccc34)cc2)N(O)C=O)C(C)C1 (stereo not drawn) [Example I-64] | 5.1 | 57 | 9 | 700 | 17 | 58 | 17 | 65 | 0.58 |
| COCc1cc(COc2ccc(S(=O)(=O)CC(C=C3CCC(=O)CC3)N(O)C=O)cc2)cc(C)n1 (stereo not drawn) [Example I-119] | 320 | > 100 | 50 | > 100000 | 60 | > 100 | 60 | > 100 | 58 |
| Cc1cc(COc2ccc(S(=O)(=O)CC(c3ccccc3C)N(O)C=O)cc2)c2cccc(F)c2n1 (stereo not drawn) [Example I-124, N-{2-[4-(8-fluoro-2-methylquinolin-4-ylmethoxy)benzenesulfonyl]-1-o-tolylethyl}-N-hydroxyformamide] | 6 | 34 | 1.9 | 4800 | 1.9 | 24 | 5.8 | 7 | 4.8 |
| COCc1cc(COc2ccc(S(=O)(=O)CC(CC3CCC(=NO)CC3)N(O)C=O)cc2)cc(C)n1 (stereo not drawn) [Example I-122] | 200 | > 100 | 9 | 21000 | 14 | > 100 | 12 | > 100 | 18 |
| Cc1ccc(C(CS(=O)(=O)c2ccc(OCc3cc(C)nc4ccc(F)cc34)cc2)N(O)C=O)cn1 (stereo not drawn) [Example I-81] | 5.1 | > 100 | 11 | 2200 | 20 | > 100 | 17 | 64 | 8 |
| COc1ccc(CCC(CS(=O)(=O)c2ccc(OCc3cc(C)nc4ccccc34)cc2)N(O)C=O)cc1 (stereo not drawn) [Example I-35] | 32 | 50 | 4.2 | 10000 | 35 | 37 | 7.8 | 38 | 6 |
| COCc1cc(COc2ccc(S(=O)(=O)CC(c3ccccc3C)N(O)C=O)cc2)cc(C)n1 (stereo not drawn) [Example I-117] | 620 | > 100 | 12 | 20000 | 20 | > 100 | 28 | > 100 | 22 |
| Cc1ccc2nc(C)cc(COc3ccc(S(=O)(=O)CC(c4ccccc4C)N(O)C=O)cc3)c2c1 (stereo not drawn) [Example I-77] | 26 | 74 | 71 | 3000 | > 100 | 80 | 28 | 55 | 7.5 |
| CCC(CC)CN1CCC(CC(CS(=O)(=O)c2ccc(OCc3cc(C)nc4ccccc34)cc2)N(O)C=O)CC1 (stereo not drawn) [Example I-71] | 20 | > 100 | 0.78 | 400 | 10 | 38 | 1.4 | 70 | 0.06 |
| Cc1cc(COc2ccc(S(=O)(=O)CC(CC3CCN(S(C)(=O)=O)CC3)N(O)C=O)cc2)c2ccccc2n1 (stereo not drawn) [Example I-70] | 11 | > 100 | 11 | 1300 | 22 | > 100 | 30 | 92 | 1.9 |
| Cc1cncc(C(CS(=O)(=O)c2ccc(OCc3cc(C)nc4c(F)cccc34)cc2)N(O)C=O)c1 (stereo not drawn) [Example I-150] | 2.5 | > 100 | 34 | 4000 | 27 | > 100 | 18 | 58 | 2.4 |
| Cc1ccc(C(CS(=O)(=O)c2ccc(OCc3cc(C)nc4ccccc34)cc2)N(O)C=O)cn1 (stereo not drawn) [Example I-32] | 2.5 | > 100 | 18 | 2700 | 22 | 44 | 9 | 53 | 1.5 |
